≈ marks a conversion by molar mass, not a printed value. Where two headings read alike, the source gives them in different places.
What was measured:
Type in all cases: cell-based
[1] = test system: S. aureus NB01006-AVR005 (gyrA S84L, grlA S80F, grlB E471K); experiment: microbe, parasite or virus in culture; details: Staphylococcus aureus, 20 h, read-out: Antibacterial activity (MIC) NB01006-AVR005
[2] = test system: P. aeruginosa NB52019 (wild-type PAO1); experiment: MIC, broth microdilution (CLSI); details: Pseudomonas aeruginosa, read-out: Antibacterial activity (MIC) NB52019
[3] = test system: P. aeruginosa NB52023-CDK0006 (gyrA T83I, parC S87L); experiment: microbe, parasite or virus in culture; details: Pseudomonas aeruginosa, 20 h, read-out: Antibacterial activity (MIC) NB52023-CDK0006
[4] = test system: S. aureus ATCC 29213 (NB01001); experiment: MIC, broth microdilution (CLSI); details: Staphylococcus aureus, ATCC29213; S. aureus ATCC 29213; 35° C., 20 hours; read-out: Antibacterial activity (MIC) NB01001
[5] = test system: P. aeruginosa NB52023 (efflux deficient K1542, ΔmexX ΔmexB); experiment: microbe, parasite or virus in culture; details: Pseudomonas aeruginosa, 20 h, read-out: Antibacterial activity (MIC) NB52023
[6] = test system: E. coli ATCC 25922 (NB27001); experiment: MIC, broth microdilution (CLSI); details: Escherichia coli, ATCC25922; E. coli ATCC 25922; 35° C., 20 hours; read-out: Antibacterial activity (MIC) NB27001
[7] = test system: E. coli NB27177 (efflux deficient CGSC 11430, ΔtolC732::kan); experiment: microbe, parasite or virus in culture; details: Escherichia coli, 20 h, read-out: Antibacterial activity (MIC) NB27177

Row | Structure (SMILES) | MIC [1] | MIC ([2]; P. aeruginosa wild-type PAO1, 35° C., 20 hours) | MIC [3] | MIC [4] | MIC [5] | MIC [6] | MIC [7] | MIC ([2]; PAO1, 20 h)
1 | Cc1c(N2CCC(CN)C2)c(F)c(C#N)c2ccc(=O)n(C3CC3)c12.O=C(O)C(F)(F)F (stereo not drawn) [Example 99, 7-(3-(aminomethyl)pyrrolidin-1-yl)-1-cyclopropyl-6-fluoro-8-methyl-2-oxo-1,2-dihydroquinoline-5-carbonitrile TFA salt] | 0.06 µg/mL | > 32 µg/mL | 4 µg/mL | 0.125 µg/mL | 2 µg/mL | 4 µg/mL | 0.125 µg/mL | 
2 | Cc1c(N2CC[C@@H](CN)C2)c(F)cc2c(C#N)cc(=O)n(C3CC3)c12 [Example 31, (S)-7-(3-(aminomethyl)pyrrolidin-1-yl)-1-cyclopropyl-6-fluoro-8-methyl-2-oxo-1,2-dihydroquinoline-4-carbonitrile] | 0.06 µg/mL (≈ 0.176 µM) |  | 4 µg/mL (≈ 11.8 µM) | 0.06 µg/mL (≈ 0.176 µM) | 2 µg/mL (≈ 5.88 µM) | 2 µg/mL (≈ 5.88 µM) | < 0.03 µg/mL | 8 µg/mL (≈ 23.5 µM)
3 | Cc1c(N2CC[C@H](O)C2)c(F)cc2c(CN)cc(=O)n(C3CC3)c12 [Example 81.32, (S)-4-(aminomethyl)-1-cyclopropyl-6-fluoro-7-(3-hydroxypyrrolidin-1-yl)-8-methylquinolin-2(1H)-one] | 1 µg/mL (≈ 3.02 µM) |  | 1 µg/mL (≈ 3.02 µM) | 0.5 µg/mL (≈ 1.51 µM) | 0.25 µg/mL (≈ 0.754 µM) | 0.5 µg/mL (≈ 1.51 µM) | < 0.03 µg/mL | 4 µg/mL (≈ 12.1 µM)
4 | CC(=O)NCc1cc(=O)n(C2CC2)c2c(C)c(N3CC[C@@H]([C@H](C)N)C3)c(F)cc12 [Example 46, N-((7-((R)-3-((S)-1-aminoethyl)pyrrolidin-1-yl)-1-cyclopropyl-6-fluoro-8-methyl-2-oxo-1,2-dihydroquinolin-4-yl)methyl)acetamide] | 2 µg/mL (≈ 4.99 µM) |  | > 32 µg/mL | 8 µg/mL (≈ 20 µM) | > 32 µg/mL | 32 µg/mL (≈ 79.9 µM) | 2 µg/mL (≈ 4.99 µM) | 32 µg/mL (≈ 79.9 µM)
5 | Cc1c(N2CC[C@@H]([C@H](C)N)C2)c(F)cc2c(OCCC/C(N)=N\O)cc(=O)n(C3CC3)c12 [Example 58, 4-((7-((R)-3-((S)-1-aminoethyl)pyrrolidin-1-yl)-1-cyclopropyl-6-fluoro-8-methyl-2-oxo-1,2-dihydroquinolin-4-yl)oxy)-N′-hydroxybutanimidamide] | 2 µg/mL (≈ 4.49 µM) |  | 32 µg/mL (≈ 71.8 µM) | 4 µg/mL (≈ 8.98 µM) | 32 µg/mL (≈ 71.8 µM) | 32 µg/mL (≈ 71.8 µM) | 1 µg/mL (≈ 2.24 µM) | > 32 µg/mL
6 | Cc1c(N2CC3CC3(N)C2)c(F)cc2c(CN)cc(=O)n(C3CC3)c12 (stereo not drawn) [Example 81.23, 7-(1-amino-3-azabicyclo[3.1.0]hexan-3-yl)-4-(aminomethyl)-1-cyclopropyl-6-fluoro-8-methylquinolin-2(1H)-one] | 0.5 µg/mL (≈ 1.46 µM) |  | 1 µg/mL (≈ 2.92 µM) | 0.5 µg/mL (≈ 1.46 µM) | 0.5 µg/mL (≈ 1.46 µM) | 0.25 µg/mL (≈ 0.73 µM) | 0.06 µg/mL (≈ 0.175 µM) | 4 µg/mL (≈ 11.7 µM)
7 | COc1cc(=O)n(C2CC2)c2c(C)c(N3CC[C@@H]([C@H](C)N)C3)ccc12 [Example 68, 7-((R)-3-((S)-1-aminoethyl)pyrrolidin-1-yl)-1-cyclopropyl-4-methoxy-8-methylquinolin-2(1H)-one] | 1 µg/mL (≈ 2.93 µM) |  | > 32 µg/mL | 0.5 µg/mL (≈ 1.46 µM) | > 32 µg/mL | 32 µg/mL (≈ 93.7 µM) | 0.25 µg/mL (≈ 0.732 µM) | > 32 µg/mL
8 | Cc1c(N2CC[C@@H]([C@H](C)N)C2)c(F)cc2c(NS(C)(=O)=O)cc(=O)n(C3CC3)c12 [Example 37, N-(7-((R)-3-((S)-1-aminoethyl)pyrrolidin-1-yl)-1-cyclopropyl-6-fluoro-8-methyl-2-oxo-1,2-dihydroquinolin-4-yl)methanesulfonamide] | 16 µg/mL (≈ 37.9 µM) |  | > 32 µg/mL | 8 µg/mL (≈ 18.9 µM) | > 32 µg/mL | 32 µg/mL (≈ 75.7 µM) | 4 µg/mL (≈ 9.47 µM) | 32 µg/mL (≈ 75.7 µM)
9 | Cc1c(N2CC[C@H](N)C2)c(F)c(F)c2c(CN)cc(=O)n(C3CC3)c12 [Example 83.6, (S)-4-(aminomethyl)-7-(3-aminopyrrolidin-1-yl)-1-cyclopropyl-5,6-difluoro-8-methylquinolin-2(1H)-one] | 2 µg/mL (≈ 5.74 µM) |  | 0.5 µg/mL (≈ 1.44 µM) | 1 µg/mL (≈ 2.87 µM) | 0.25 µg/mL (≈ 0.718 µM) | 0.5 µg/mL (≈ 1.44 µM) | 0.06 µg/mL (≈ 0.172 µM) | 4 µg/mL (≈ 11.5 µM)
